According to US20230219904A1 (SYNGENTA CROP PROTECTION AG, priority 2020, published 2023):

Key:
Type in all cases: in vivo
Settings in all cases: evaluated after 13 days
Setaria faberi (SETFA) [1] = test: Pre-emergence herbicidal glasshouse test (Table B1)
Procedure, shortened: (§1)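 Glasshouse pot test: compounds sprayed pre-emergence (day 1) or post-emergence (day 8) at 500 g/h unless stated. Evaluation at 13 days as percentage damage, reported on a five-point scale where 5 means 80-100%.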

[2] = tested on: Ipomoea hederacea (IPOHE); test: as above
Procedure, shortened: as §1

[3] = tested on: Abutilon theophrasti (ABUTH); test: as above
Procedure, shortened: as §1

[4] = tested on: Amaranthus retoflexus (AMARE); test: as above
Procedure, shortened: as §1

[5] = tested on: Echinochloa crus-galh (ECHCG); test: as above
Procedure, shortened: as §1

Setaria faberi (SETFA) [6] = test: Post-emergence herbicidal glasshouse test (Table B1)
Procedure, shortened: as §1

[7] = tested on: Ipomoea hederacea (IPOHE); test: as above
Procedure, shortened: as §1

[8] = tested on: Abutilon theophrasti (ABUTH); test: as above
Procedure, shortened: as §1

[9] = tested on: Amaranthus retoflexus (AMARE); test: as above
Procedure, shortened: as §1

[10] = tested on: Echinochloa crus-galh (ECHCG); test: as above
Procedure, shortened: as §1

| SMILES | PRE Application SETFA, percentage damage on five-point scale (Setaria faberi (SETFA) [1]; applied at 500 g/h) | PRE Application IPOHE, percentage damage on five-point scale ([2]; applied) | PRE Application ABUTH, percentage damage on five-point scale ([3]; applied at 500 g/h) | PRE Application AMARE, percentage damage on five-point scale ([4]; applied at 500 g/h) | PRE Application ECHCG, percentage damage on five-point scale ([5]; applied at 500 g/h) | POST Application SETFA, percentage damage on five-point scale (Setaria faberi (SETFA) [6]; applied at 500 g/h) | POST Application IPOHE, percentage damage on five-point scale ([7]; applied at 500 g/h) | POST Application ABUTH, percentage damage on five-point scale ([8]; applied at 500 g/h) | POST Application AMARE, percentage damage on five-point scale ([9]; applied at 500 g/h) | POST Application ECHCG, percentage damage on five-point scale ([10]; applied at 500 g/h) | PRE Application SETFA, percentage damage on five-point scale (Setaria faberi (SETFA) [1]; applied at 125 g/ha) | PRE Application IPOHE, percentage damage on five-point scale ([2]; applied at 125 g/ha) | PRE Application ABUTH, percentage damage on five-point scale ([3]; applied at 125 g/ha) | PRE Application AMARE, percentage damage on five-point scale ([4]; applied at 125 g/ha) | PRE Application ECHCG, percentage damage on five-point scale ([5]; applied at 125 g/ha) | POST Application SETFA, percentage damage on five-point scale (Setaria faberi (SETFA) [6]; applied at 125 g/ha) | POST Application IPOHE, percentage damage on five-point scale ([7]; applied at 125 g/ha) | POST Application ABUTH, percentage damage on five-point scale ([8]; applied at 125 g/ha) | POST Application AMARE, percentage damage on five-point scale ([9]; applied at 125 g/ha) | POST Application ECHCG, percentage damage on five-point scale ([10]; applied at 125 g/ha) |
| --- | --- | --- | --- | --- | --- | --- | --- | --- | --- | --- | --- | --- | --- | --- | --- | --- | --- | --- | --- | --- |
| COCC(=O)Nc1c(OC(F)(F)F)ccc(C(=O)Nc2nnnn2C)c1Cl [Compound 1.130] | 1 (1=0-19%) | 1 (1=0-19%) | 4 (4=60-79%) | 5 (5=80-100%) | 2 (2=20-39%) | 5 (5=80-100%) | 4 (4=60-79%) | 5 (5=80-100%) | 5 (5=80-100%) | 5 (5=80-100%) |  |  |  |  |  |  |  |  |  |  |
| COc1ccc(C(=O)Nc2nnnn2C)c(Cl)c1NC(=O)C1CC1 [Compound 1.029] | 5 (5=80-100%) | 4 (4=60-79%) | 5 (5=80-100%) | 5 (5=80-100%) | 5 (5=80-100%) | 5 (5=80-100%) | 5 (5=80-100%) | 5 (5=80-100%) | 5 (5=80-100%) | 5 (5=80-100%) |  |  |  |  |  |  |  |  |  |  |
| CC(F)C(=O)Nc1c(OC(F)(F)F)ccc(C(=O)Nc2nnnn2C)c1Cl (centres unmarked) [Compound 1.009] | 5 (5=80-100%) | 4 (4=60-79%) | 5 (5=80-100%) | 5 (5=80-100%) | 1 (1=0-19%) | 5 (5=80-100%) | 5 (5=80-100%) | 5 (5=80-100%) | 5 (5=80-100%) | 5 (5=80-100%) |  |  |  |  |  |  |  |  |  |  |
| Cn1nnnc1NC(=O)c1ccc(OC(F)F)c(NC(=O)CC2CC2)c1Cl [Compound 1.036] |  |  |  |  |  |  |  |  |  |  | 5 (5=80-100%) | 4 (4=60-79%) | 5 (5=80-100%) | 5 (5=80-100%) | 5 (5=80-100%) | 5 (5=80-100%) | 4 (4=60-79%) | 5 (5=80-100%) | 5 (5=80-100%) | 5 (5=80-100%) |
| Cn1nnnc1NC(=O)c1ccc(OC(F)(F)F)c(NC(=O)CC2CC2)c1Cl [Compound 1.034] | 5 (5=80-100%) | 4 (4=60-79%) | 5 (5=80-100%) | 5 (5=80-100%) | 5 (5=80-100%) | 5 (5=80-100%) | 5 (5=80-100%) | 5 (5=80-100%) | 5 (5=80-100%) | 5 (5=80-100%) |  |  |  |  |  |  |  |  |  |  |
| CCn1nnnc1NC(=O)c1ccc(OC(F)(F)F)c(NC(=O)C2CC2)c1Cl [Compound 1.117] | 4 (4=60-79%) | 4 (4=60-79%) | 5 (5=80-100%) | 5 (5=80-100%) | 5 (5=80-100%) | 5 (5=80-100%) | 5 (5=80-100%) | 5 (5=80-100%) | 5 (5=80-100%) | 5 (5=80-100%) |  |  |  |  |  |  |  |  |  |  |
| CCn1nnnc1NC(=O)c1ccc(OC(F)(F)F)c(NC(=O)c2ccccn2)c1Cl [Compound 1.128] | 1 (1=0-19%) | 1 (1=0-19%) | 4 (4=60-79%) | 5 (5=80-100%) | 3 (3=40-59%) | 5 (5=80-100%) | 5 (5=80-100%) | 5 (5=80-100%) | 5 (5=80-100%) | 5 (5=80-100%) |  |  |  |  |  |  |  |  |  |  |
| CCn1nnnc1NC(=O)c1ccc(OC(F)(F)F)c(NC(=O)CCOC)c1Cl [Compound 1.113] | 2 (2=20-39%) | 1 (1=0-19%) | 5 (5=80-100%) | 5 (5=80-100%) | 5 (5=80-100%) | 5 (5=80-100%) | 5 (5=80-100%) | 5 (5=80-100%) | 5 (5=80-100%) | 5 (5=80-100%) |  |  |  |  |  |  |  |  |  |  |
| CC(C)CC(=O)Nc1c(OC(F)(F)F)ccc(C(=O)Nc2nnnn2C)c1Cl [Compound 1.008] | 4 (4=60-79%) | 3 (3=40-59%) | 5 (5=80-100%) | 5 (5=80-100%) | 5 (5=80-100%) | 5 (5=80-100%) | 5 (5=80-100%) | 5 (5=80-100%) | 5 (5=80-100%) | 5 (5=80-100%) |  |  |  |  |  |  |  |  |  |  |
| Cc1nnc(NC(=O)c2ccc(OC(F)(F)F)c(N(C)C)c2Cl)o1 [Compound 2.001, 2-chloro-3-(dimethylamino)-N-(5-methyl-1,3,4-oxadiazol-2-yl)-4-(trifluoromethoxy)benzamide] | 5 (5=80-100%) | 3 (3=40-59%) | 4 (4=60-79%) | 5 (5=80-100%) | 5 (5=80-100%) | 5 (5=80-100%) | 5 (5=80-100%) | 4 (4=60-79%) | 5 (5=80-100%) | 5 (5=80-100%) |  |  |  |  |  |  |  |  |  |  |
| CCOC(C)C(=O)Nc1c(OC(F)(F)F)ccc(C(=O)Nc2nnnn2C)c1Cl (centres unmarked) [Compound 1.065] |  |  |  |  |  |  |  |  |  |  | 5 (5=80-100%) | 5 (5=80-100%) | 5 (5=80-100%) | 5 (5=80-100%) | 5 (5=80-100%) | 5 (5=80-100%) | 5 (5=80-100%) | 5 (5=80-100%) | 5 (5=80-100%) | 5 (5=80-100%) |
